Measured values as given in patent publication US9012398B2, “Acylated exendin-4 compounds” (priority 2006, dated 2015).
Residues, ends and D or L forms follow the SMILES beside them. Groups on a side chain read outwards from the residue. *: point of attachment. C18 diacid = O=C(O)CCCCCCCCCCCCCCCCC(=O)*; Stearoyl = CCCCCCCCCCCCCCCCCC(=O)*; AEEA = NCCOCCOCC(=O)O

Legend:
[1] = test system: db/db mice; experiment: Pharmacodynamic study using db/db mice (blood glucose after subcutaneous dosing); format: in vivo; details: 30 nmol/kg subcutaneous
Procedure: The efficacy and duration of action were measured after dosing of 30 nmol/kg to db/db mice. Male db/db mice were shipped from Taconic, Denmark at the age of 8-10 weeks. From the time of arrival, the mice were housed under standard conditions but at 24° C. The mice were kept 10 per cage until experimentation with free access to standard chow (Altromin, Brogaarden APS., Denmark) and tap water at a normal day: light cycle (light on at 6 am). […] After this, the mice were euthanized.
After an acclimatisation period of 1 week, the blood glucose was measured by sampling from the tail tip capillary. In brief, 5 μl blood was sampled in heparinised glass capillary tubes and immediately suspended in 250 μl EBIO buffer solution (Eppendorf, Germany) in an 1.5 ml Eppendorf tube. The blood glucose concentration was measured by the glucose oxidase method at the EBIO Plus Auto analyser (Eppendorf, Germany).
The cut of value for blood glucose was 10 mM. When evaluating the mice, it was considered essential, that all 42 mice entering the experiment had blood glucose values above 10 mM, but also that the inter-mice variance was small. Therefore, if many mice were not severely diabetic, whereas some were, the start up of experiments was postponed one week and new basal blood glucose measurements were made.
Based on the basal blood glucose values, the mice were allocated to 7 groups of n=6 with matching group mean blood glucose values.
On the day of testing the basal blood glucose morning values were assessed as described above and the basal body weight of each mouse was assessed. A time 0, the compound was dosed subcutaneously in the scruff of the neck (dosing volume app. 300 μl/50 g mouse).
The blood glucose values were followed up to 48 hours (time 1, 3, 6, 24 and 48 h) and the terminal body weight was assessed.
All data were entered into Graphpad Prism where mean blood glucose and mean delta body weights were calculated.

[2] = target: T1, human GLP-1 receptor (Homo sapiens, UniProt P43220); experiment: Functional receptor assay: cAMP formation in plasma membranes of BHK cells expressing the cloned human GLP-1 receptor (GLP1cAMPma); format: biochemical
T1 construct: expressed in transfected cells; host or cells: BHK cells, clone BHK-467-12A; plasma membrane preparation
T1 sequence (P43220 24-463): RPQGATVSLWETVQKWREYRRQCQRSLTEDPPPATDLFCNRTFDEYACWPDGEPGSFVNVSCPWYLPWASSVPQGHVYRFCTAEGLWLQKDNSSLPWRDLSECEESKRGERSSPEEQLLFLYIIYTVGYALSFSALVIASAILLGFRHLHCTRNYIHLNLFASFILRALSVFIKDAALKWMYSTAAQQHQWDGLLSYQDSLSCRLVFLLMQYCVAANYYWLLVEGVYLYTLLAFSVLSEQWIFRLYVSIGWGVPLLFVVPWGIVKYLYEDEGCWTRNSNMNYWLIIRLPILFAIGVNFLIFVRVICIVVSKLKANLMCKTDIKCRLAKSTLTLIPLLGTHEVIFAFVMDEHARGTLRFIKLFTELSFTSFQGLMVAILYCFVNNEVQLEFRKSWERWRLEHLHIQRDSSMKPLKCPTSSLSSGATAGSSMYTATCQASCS
Procedure, shortened: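 cAMP formation was read by AlphaScreen after a 3 h room-temperature incubation of agonist with human GLP-1 receptor BHK membranes (6 μg/well). The pH 7.4 buffer held 10 mM MgCl2, 1 mM ATP, 1 μM GTP and 0.5 mM IBMX. EC50 values were estimated by four-parameter logistic regression.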

`CCCCCCCCCCCCCCCCCC(=O)NCCOCCOCC(=O)NCCOCCOCC(=O)NCCOCCOCC(=O)NCCCC[C@H](NC(=O)[C@@H](NC(=O)[C@H](C)NC(=O)[C@H](CCC(=O)O)NC(=O)[C@H](CCC(=O)O)NC(=O)[C@H](CCC(=O)O)NC(=O)[C@H](CC(C)C)NC(=O)[C@H](CCC(N)=O)NC(=O)[C@H](CCCNC(=N)N)NC(=O)[C@H](CO)NC(=O)[C@H](CC(C)C)NC(=O)[C@H](CC(=O)O)NC(=O)[C@H](CO)NC(=O)[C@@H](NC(=O)[C@H](Cc1ccccc1)NC(=O)[C@@H](NC(=O)CNC(=O)[C@H](CCC(=O)O)NC(=O)CNC(=O)[C@@H](N)Cc1c[nH]cn1)[C@@H](C)O)[C@@H](C)O)C(C)C)C(=O)N[C@@H](CC(C)C)C(=O)N[C@@H](Cc1ccccc1)C(=O)N[C@H](C(=O)N[C@@H](CCC(=O)O)C(=O)N[C@@H](Cc1c[nH]c2ccccc12)C(=O)N[C@@H](CC(C)C)C(=O)N[C@@H](CCCNC(=N)N)C(=O)N[C@@H](CCCNC(=N)N)C(=O)NCC(=O)NCC(=O)N1CCC[C@H]1C(=O)N[C@@H](CO)C(=O)N[C@@H](CO)C(=O)NCC(=O)N[C@@H](C)C(=O)N1CCC[C@H]1C(=O)N1CCC[C@H]1C(=O)N1CCC[C@H]1C(=O)N[C@@H](CO)C(N)=O)[C@@H](C)CC` [Example 5, N-ε^20-(2-(2-(2-(2-(2-(2-(2-(2-(2-(Octadecanoylamino)ethoxy)ethoxy)acetylamino)ethoxy)ethoxy)acetyl-amino)ethoxy)ethoxy)acety))[Arg^12,27,28,Leu^14,Lys^20 Exendin-4(1-39)amide] (H-HGEGTFTSDLSRQLEEEAVK([AEEA-AEEA-AEEA-Stearoyl])LFIEWLRRGGPSSGAPPPS-NH2; N-terminus assumed) was tested, and the “Delta AUC for blood glucose after 30 nmol/kg in db/db mice, 48 hours” value [1] was −410 ± 111, *** mM × hour and the EC50 [2] was 0.007 nM.

`CC[C@H](C)[C@H](NC(=O)[C@H](Cc1ccccc1)NC(=O)[C@H](CC(C)C)NC(=O)[C@H](CCCNC(=N)N)NC(=O)[C@@H](NC(=O)[C@H](C)NC(=O)[C@H](CCC(=O)O)NC(=O)[C@H](CCC(=O)O)NC(=O)[C@H](CCC(=O)O)NC(=O)[C@H](CC(C)C)NC(=O)[C@H](CCC(N)=O)NC(=O)[C@H](CCCNC(=N)N)NC(=O)[C@H](CO)NC(=O)[C@H](CC(C)C)NC(=O)[C@H](CC(=O)O)NC(=O)[C@H](CO)NC(=O)[C@@H](NC(=O)[C@H](Cc1ccccc1)NC(=O)[C@@H](NC(=O)CNC(=O)[C@H](CCC(=O)O)NC(=O)CNC(=O)[C@@H](N)Cc1c[nH]cn1)[C@@H](C)O)[C@@H](C)O)C(C)C)C(=O)N[C@@H](CCC(=O)O)C(=O)N[C@@H](Cc1c[nH]c2ccccc12)C(=O)N[C@@H](CC(C)C)C(=O)N[C@@H](CCCNC(=N)N)C(=O)N[C@@H](CC(N)=O)C(=O)NCC(=O)NCC(=O)N1CCC[C@H]1C(=O)N[C@@H](CO)C(=O)N[C@@H](CO)C(=O)N[C@@H](CCCCNC(=O)COCCOCCNC(=O)CCCCCCCCCCCCCCCCC(=O)O)C(=O)N[C@@H](C)C(=O)N1CCC[C@H]1C(=O)N1CCC[C@H]1C(=O)N1CCC[C@H]1C(=O)N[C@@H](CO)C(N)=O` [Example 8, N-ε^34-(2-(2-(2-(17-carboxyheptadecanoylamino)ethoxy)ethoxy)acetyl) [Leu^14,Arg^12,27,Lys^34]Exendin-4(1-39)amide] (H-HGEGTFTSDLSRQLEEEAVRLFIEWLRNGGPSSK([AEEA-C18 diacid])APPPS-NH2) was tested, and the “Delta AUC for blood glucose after 30 nmol/kg in db/db mice, 48 hours” value [1] was −500 ± 122, *** mM × hour and the EC50 [2] was 0.44 nM.
